Structures can show the parent of a compound that is named as a salt. Where two headings read alike, the source gives them in different places. Peptide text beside a SMILES is read from it.
What was measured:
[1] = test system: NCI-H292 lung cancer cells; test: FDA drug screening, complete media vs cholesterol-free media without statin (TABLE 1); format: cell-based, human
[2] = test system: NCI-H292 lung cancer cells; test: FDA drug screening, complete media vs cholesterol-free media with simvastatin (TABLE 2); format: cell-based, human
[3] = NCI-H292 cells, cholesterol-free media without statin
[4] = complete vs cholesterol-free media, greater than 0 enhanced anti-cancer activity, about 0 neutral, below 0 antagonists
[5] = NCI-H292 cells, drug in cholesterol-free media with simvastatin 0.04 μM
[6] = NCI-H292 cells, drug in complete media
[7] = complete media vs cholesterol-free media + simvastatin (0.04 μM), >0 enhanced anti-cancer activity, about 0 neutral, <0 antagonist
[8] = NCI-H292 cells, cholesterol-free media with simvastatin 0.04 μM, cell growth value in FDA drug screen
[9] = NCI-H292 cells, complete media, cell growth value in FDA drug screen
[10] = complete media minus cholesterol-free media + simvastatin, >0 enhanced anti-cancer activity, about 0 neutral, <0 antagonist
[11] = Complete minus Cholesterol-free, greater than 0 enhanced anti-cancer activity, about 0 neutral, below 0 antagonist
[12] = NCI-H292 cells, FDA drug library screen, cholesterol-free media without statin
[13] = NCI-H292 cells, FDA drug library screen, complete media
[14] = Complete minus Cholesterol-free, >0 enhanced anti-cancer activity, about 0 neutral, <0 antagonist
[15] = NCI-H292 cells, cholesterol-free media without statin, FDA drug library screen
[16] = NCI-H292 cells, complete media, FDA drug library screen
[17] = NCI-H292 cells, FDA library drug in cholesterol-free media with simvastatin 0.04 μM
[18] = NCI-H292 cells, FDA library drug in complete media
[19] = Complete minus Cholesterol-free, greater than 0 enhanced anti-cancer activity, about 0 neutral, below 0 antagonists
[20] = NCI-H292 cells in cholesterol-free media without statin
[21] = NCI-H292 cells in complete media
[22] = NCI-H292 cells, FDA drug library screen, cholesterol-free media with simvastatin 0.04 μM
[23] = complete media minus cholesterol-free media + simvastatin, […]
[24] = Complete minus Cholesterol-free, […]
[25] = complete media vs cholesterol-free media + simvastatin (0.04 μM), […]
[26] = complete vs cholesterol-free media, >0 enhanced anti-cancer activity, about 0 neutral, <0 antagonist
[27] = NCI-H292 cells, cholesterol-free media with simvastatin 0.04 μM, FDA drug library screen (TABLE 2)
[28] = NCI-H292 cells, complete media, FDA drug library screen (TABLE 2)
[29] = complete media minus cholesterol-free media + simvastatin (0.04 μM), >0 enhanced anti-cancer activity, about 0 neutral, <0 antagonist

Compound: CC(=O)NCCCCCC(=O)O [6-Acetamidohexanoic acid]
- Cholesterol-free [1, 3]: 1.348
- Complete ([1]; NCI-H292 cells, complete media): 1.01
- Difference [1, 4]: −0.34
- Cholesterol-free media + simvastatin (0.04 μM) [2, 5]: 1.04
- Complete Media [2, 6]: 0.7847
- Difference [2, 7]: −0.26

Compound: CC(C)[N+](C)(CCC(C(N)=O)(c1ccccc1)c1ccccc1)C(C)C.[I-] [Isopropamide (iodide)]
- Cholesterol-free [1, 3]: 1.319
- Complete ([1]; NCI-H292 cells, complete media): 0.9185
- Difference [1, 4]: −0.40
- Cholesterol-free media + simvastatin (0.04 μM) [2, 8]: 0.9908
- Complete Media [2, 9]: 1.047
- Difference [2, 10]: 0.06

Compound: CC1(C)O[C@@H]2C[C@H]3[C@@H]4CCC5=CC(=O)CC[C@]5(C)[C@@]4(F)[C@@H](O)C[C@]3(C)[C@]2(C(=O)CCl)O1 [Halcinonide]
- Difference [1, 11]: −0.18
- Cholesterol-free [1, 12]: 0.895
- Complete [1, 13]: 0.7117
- Cholesterol-free media + simvastatin (0.04 μM) [2, 8]: 0.5751
- Complete Media [2, 9]: 0.6822
- Difference [2, 10]: 0.11

Compound: CS(=O)(=O)OCCCCOS(C)(=O)=O [Busulfan]
- Difference [1, 14]: 0.07
- Cholesterol-free [1, 15]: 1.648
- Complete [1, 16]: 1.719
- Cholesterol-free media + simvastatin (0.04 μM) [2, 17]: 1.936
- Complete Media [2, 18]: 1.265
- Difference [2, 7]: −0.67

Compound: CN[C@@H]1[C@H](O)[C@H](NC)[C@H]2O[C@@]3(O)C(=O)C[C@@H](C)O[C@H]3O[C@@H]2[C@H]1O.Cl.Cl.O.O.O.O.O
- Difference [1, 19]: −0.93
- Cholesterol-free [1, 20]: 1.889
- Complete [1, 21]: 0.9594
- Cholesterol-free media + simvastatin (0.04 μM) [2, 22]: 0.773
- Complete Media [2, 13]: 0.9222
- Difference [2, 10]: 0.15

Compound: Cc1ccnc(NS(=O)(=O)c2ccc(N)cc2)n1 [Sulfamerazine]
- Difference [1, 19]: −0.49
- Cholesterol-free [1, 20]: 1.498
- Complete [1, 21]: 1.009
- Cholesterol-free media + simvastatin (0.04 μM) [2, 17]: 2.163
- Complete Media [2, 18]: 1.355
- Difference [2, 7]: −0.81

Compound: C[C@H]1[C@H](NC(=O)/C(=N\OC(C)(C)C(=O)O)c2csc(N)n2)C(=O)N1S(=O)(=O)O [Aztreonam]
- Difference [1, 14]: −0.20
- Cholesterol-free [1, 3]: 1.093
- Complete ([1]; NCI-H292 cells, complete media): 0.892
- Cholesterol-free media + simvastatin (0.04 μM) [2, 5]: 1.706
- Complete Media [2, 6]: 1.446
- Difference [2, 7]: −0.26

Compound: Nc1ccc(S(=O)(=O)Nc2ncccn2)cc1 [Sulfadiazine (sodium)]
- Difference [1, 11]: −0.12
- Cholesterol-free [1, 12]: 1.217
- Complete [1, 13]: 1.095
- Cholesterol-free media + simvastatin (0.04 μM) [2, 5]: 1.234
- Complete Media [2, 6]: 0.9756
- Difference [2, 7]: −0.26

Compound: CC[C@H](C)[C@H](N)C1=N[C@H](C(=O)N[C@@H](CC(C)C)C(=O)N[C@H](CCC(=O)O)C(=O)N[C@H](C(=O)N[C@H]2CCCCNC(=O)[C@H](CC(N)=O)NC(=O)[C@@H](CC(=O)O)NC(=O)[C@H](Cc3cnc[nH]3)NC(=O)[C@@H](Cc3ccccc3)NC(=O)[C@H]([C@@H](C)CC)NC(=O)[C@@H](CCCN)NC2=O)[C@@H](C)CC)CS1 [Bacitracin] (HELM PEPTIDE1{[CC[C@H](C)[C@H](N)C1=N[C@H](C(=O)[*:2])CS1].L.[dE].I.K.[NCCC[C@@H](N[*:1])C(=O)[*:2]].I.[dF].H.[dD].N}$PEPTIDE1,PEPTIDE1,5:R3-11:R2$$$V2.0)
- Cholesterol-free [1, 3]: 1.42
- Complete ([1]; NCI-H292 cells, complete media): 1.094
- Difference ([1]; complete vs cholesterol-free media, […]): −0.33
- Cholesterol-free media + simvastatin (0.04 μM) [2, 22]: 0.9407
- Complete Media [2, 13]: 1.203
- Difference [2, 23]: 0.26

Compound: CC1=C[C@]23C(=O)[C@@H](C=C(CO)[C@@H](O)[C@]2(O)[C@H]1O)[C@H]1[C@@H](C[C@H]3C)C1(C)C [Ingenol]
- Difference [1, 24]: −0.29
- Cholesterol-free [1, 3]: 0.932
- Complete ([1]; NCI-H292 cells, complete media): 0.6376
- Cholesterol-free media + simvastatin (0.04 μM) [2, 22]: 1.056
- Complete Media [2, 13]: 0.969
- Difference [2, 25]: −0.09

Compound: O=C(O)CCC(=O)O [Succinic acid]
- Cholesterol-free [1, 15]: 0.9807
- Complete [1, 16]: 1.143
- Difference [1, 26]: 0.16
- Cholesterol-free media + simvastatin (0.04 μM) [2, 27]: 1.729
- Complete Media [2, 28]: 1.686
- Difference [2, 29]: −0.04

Compound: COC(=O)N[C@H](C(=O)N1CC2(CC2)C[C@H]1c1nc(-c2ccc3c(c2)C(F)(F)c2cc(-c4ccc5[nH]c([C@@H]6[C@H]7CC[C@H](C7)N6C(=O)[C@@H](NC(=O)OC)C(C)C)nc5c4)ccc2-3)c[nH]1)C(C)C [Ledipasvir (acetone)]
- Difference [1, 11]: −0.13
- Cholesterol-free [1, 12]: 0.5672
- Complete [1, 13]: 0.4332
- Cholesterol-free media + simvastatin (0.04 μM) [2, 17]: 1.383
- Complete Media [2, 18]: 0.9707
- Difference [2, 7]: −0.41

Compound: O=[N+]([O-])C(Br)(CO)CO [Bronopol]
- Difference [1, 19]: −0.52
- Cholesterol-free [1, 20]: 1.461
- Complete [1, 21]: 0.9389
- Cholesterol-free media + simvastatin (0.04 μM) [2, 8]: 0.8221
- Complete Media [2, 9]: 0.9082
- Difference [2, 10]: 0.09

Compound: CCCN[C@H]1CCc2nc(N)sc2C1 [Pramipexole (dihydrochloride)]
- Difference [1, 19]: −0.49
- Cholesterol-free [1, 20]: 1.504
- Complete [1, 21]: 1.014
- Cholesterol-free media + simvastatin (0.04 μM) [2, 27]: 0.885
- Complete Media [2, 28]: 0.866
- Difference [2, 29]: −0.02

Compound: O=c1[nH]ccc2c(S(=O)(=O)N3CCCNCC3)cccc12 [Hydroxyfasudil]
- Cholesterol-free [1]: 0.944
- Complete [1]: 1.011
- Difference [1]: 0.07
- Cholesterol-free media + simvastatin (0.04 μM) [2]: 0.9404
- Complete Media [2]: 0.8562
- Difference [2]: −0.08

Compound: O=S(=O)(O)CCS [Mesna]
- Difference [1, 14]: −0.29
- Cholesterol-free [1, 3]: 1.145
- Complete ([1]; NCI-H292 cells, complete media): 0.8536
- Cholesterol-free media + simvastatin (0.04 μM) [2, 22]: 1.227
- Complete Media [2, 13]: 1.122
- Difference [2, 7]: −0.10

Compound: Cl.N[C@H]1C(O)O[C@H](CO)[C@@H](O)[C@@H]1O (stereo partly drawn) [Glucosamine (hydrochloride)]
- Difference [1, 11]: −0.17
- Cholesterol-free [1, 12]: 1.116
- Complete [1, 13]: 0.9464
- Cholesterol-free media + simvastatin (0.04 μM) [2, 22]: 0.9525
- Complete Media [2, 13]: 1.178
- Difference [2, 10]: 0.23

Compound: Oxeladin (citrate)
- Difference [1, 24]: −0.55
- Cholesterol-free [1, 20]: 1.475
- Complete [1, 21]: 0.921
- Cholesterol-free media + simvastatin (0.04 μM) [2, 22]: 0.7029
- Complete Media [2, 13]: 1.466
- Difference [2, 23]: 0.76

Compound: CC(C)C(=O)Oc1ccc(CO)cc1[C@H](CCN(C(C)C)C(C)C)c1ccccc1 [Fesoterodine (L-mandelate)]
- Cholesterol-free [1, 15]: 0.7419
- Complete [1, 16]: 1.264
- Difference [1, 26]: 0.52
- Cholesterol-free media + simvastatin (0.04 μM) [2, 22]: 1.103
- Complete Media [2, 13]: 0.9892
- Difference [2, 7]: −0.11

Compound: Lanreotide (acetate)
- Difference [1, 24]: −0.24
- Cholesterol-free [1, 3]: 1.287
- Complete ([1]; NCI-H292 cells, complete media): 1.045
- Cholesterol-free media + simvastatin (0.04 μM) [2, 5]: 1.388
- Complete Media [2, 6]: 1.218
- Difference [2, 25]: −0.17

Compound: COc1ccc(CCO[C@@H]2CCCC[C@H]2N2CC[C@@H](O)C2)cc1OC [Vernakalant (Hydrochloride)]
- Difference [1, 14]: −0.26
- Cholesterol-free [1, 3]: 1.252
- Complete ([1]; NCI-H292 cells, complete media): 0.9876
- Cholesterol-free media + simvastatin (0.04 μM) [2, 8]: 1.555
- Complete Media [2, 9]: 1.614
- Difference [2, 10]: 0.06

From patent US20250144067A1, “PERSONALIZED STARVATION THERAPY FOR CANCER” (Faeth Therapeutics, Inc., priority 2021, published 2025)
